Measurements published in patent publication US20230322767A1, “ARYL SUBSTITUTED PYRROLO-PYRIDINONES AND THERAPEUTIC USES THEREOF” (Bayer Aktiengesellschaft, priority 2020, published 2023).
Where two headings read alike, the source gives them in different places.

Key:
CSNK1A1 = CSNK1A1 (Homo sapiens (Human), UniProt P48729); assay: CSNK1A1 Assay 2 (ADP-Glo, 1 μM ATP); assay type: biochemical; conditions: median, read-out: CSNK1A1 Assay 2 IC50 [mol/l] (median)
Experimental: CSNK1A1-inhibitory activity of compounds of the present invention in presence of 1 μM adenosine-tri-phosphate (ATP) was quantified employing the CSNK1A1 assay as described in the following paragraphs. In essence, the enzyme activity is measured by quantification of the adenosine-di-phosphate (ADP), which is generated as a co-product of the enzyme reaction, via the “ADP-Glo™ Kinase Assay” kit from the company Promega. This detection system works as follows: In a first step the ATP not consumed in the kinase reaction is quantitatively converted to cAMP employing an adenylate cyclase (“ADP-Glo-reagent”), then the adenylate cyclase is stopped and the ADP generated in the kinase reaction converted to ATP which generates in a luciferase-based reaction a glow-luminescence signal (“Kinase Detection Reagent”).
As substrate for the kinase reaction the biotinylated peptide biotin-Ahx-KRRRAL-pS-VASLPGL (C-terminus in amide form) was used which can be purchased e.g. from the company Biosyntan (Berlin-Buch, Germany).
For the assay 50 nl of a 100 fold concentrated solution of the test compound in DMSO was pipetted into a white 1536-well microtiter plate (Greiner Bio-One, Frickenhausen, Germany), 2 μL of a solution of CSNK1A1 in aqueous assay buffer [50 mM HEPES pH 7.5, 10% (v/v) glycerol, 10 mM MgCl2, 50 mM NaCl, 1 mM dithiothreitol, 0.01% (w/v) bovine serum albumin, 0.01% (v/v) Triton X-100] were added and the mixture was incubated for 15 min at 22° C. to allow pre-binding of the test compounds to the enzyme before the start of the kinase reaction. […] The concentration of CSNK1A1 was adjusted depending of the activity of the enzyme lot and was chosen appropriate to have the assay in the linear range, a typical concentrations are about 0.0375 ng/μL. The reaction was stopped by the addition of 2.5 μL of “ADP-Glo-reagent” (1:1.5 fold diluted with water) and the resulting mixture was incubated at 22° C. for 1 h to convert the ATP not consumed in the kinase reaction completely […]. Subsequently 2.5 μL of the “kinase detection reagent” (1.2 fold more concentrated than recommended by the producer) were added, the resulting mixture was incubated at 22° C. for 1 h and then the luminescence measured with a suitable measurement instrument (e.g. Viewlux™ from Perkin-Elmer). The amount of emitted light was taken as a measure for the amount of ADP generated and thereby for the activity of the CSNK1A1.

[1] = target: wild-type Epidermal Growth Factor Receptor (EGFR) (Homo sapiens (Human), UniProt P00533); assay: WT-EGFR Kinase Assay (TR-FRET, 2 mM ATP); assay type: biochemical
Text: Inhibitory activity of compounds of the present invention against wild-type Epidermal Growth Factor Receptor (EGFR) was quantified employing the TR-FRET based EGFR assay as described in the following paragraphs.
Recombinant fusion protein of N-terminal Glutathion-S-Transferase (GST) and a fragment of human EGFR (amino acids R669 to A1210), expressed in Sf9 insect cells and purified via affinity chromatography using Glutathion Sepharose as described above, was used as kinase. As substrate for the kinase reaction the biotinylated peptide biotin-Ahx-[…] (C-terminus in amide form) was used which can be purchased e.g. form the company Biosynthan GmbH (Berlin-Buch, Germany).
For the assay 50 nl of a 100 fold concentrated solution of the test compound in DMSO was pipetted into either a black low volume 384 well microtiter plate or a black 1536 well microtiter plate (both Greiner Bio-One, Frickenhausen, Germany), 2 μL of a solution of EGFR in aqueous assay buffer [50 mM Hepes pH 7.0, 10 mM MgCl2, 1 mM dithiothreitol, 0.5 mM EGTA, 0.3 mM activated sodium ortho-vanadate, 0.005% (w/v) bovine serum albumin, 0.005% (v/v) Tween-20] were added and the mixture was incubated for 15 min at 22° C. to allow pre-binding of the test compounds to the enzyme before the start of the kinase reaction. […] The concentration of EGFR was adjusted depending of the activity of the enzyme lot and was chosen appropriate to have the assay in the linear range, typical concentration was […]. The reaction was stopped by the addition of 3 μL of a solution of HTRF detection reagents (83.3 nM streptavidine-XL665 [Cisbio Bioassays, Codolet, France] and 1.67 nM PT66-Tb-Cryptate, a terbium-cryptate labelled anti-phospho-tyrosine antibody from Cisbio Bioassays [instead of the PT66-Tb-cryptate PT66-Eu-Chelate from Perkin Elmer can also be used]) in an aqueous EDTA-solution (133.3 mM EDTA, 0.2% (w/v) bovine serum albumin in 50 mM HEPES pH 7.5).
The resulting mixture was incubated 1 h at 22° C. to allow the binding of the biotinylated phosphorylated peptide to the streptavidine-XL665 and the PT66-Tb-Cryptate. Subsequently the amount of phosphorylated substrate was evaluated by measurement of the resonance energy transfer from the PT66-Tb-Cryptate to the streptavidine-XL665. Therefore, the fluorescence emissions at 620 nm and 665 nm after excitation at 337 nm were measured in a HTRF reader, e.g. a Pherastar (BMG Labtechnologies, Offenburg, Germany) or a Viewlux (Perkin-Elmer). The ratio of the emissions at 665 nm and at 622 nm was taken as the measure for the amount of phosphorylated substrate.

[2] = EGFR Wildtyp 2 mM ATP IC50 [mol/l] (median), median or individual measurements
[3] = read-out: EGFR Wildtyp 2 mM ATP IC50 [mol/l] (median), median or individual measurements

wild-type Epidermal Growth Factor Receptor (EGFR), sequence (P00533 669-1210): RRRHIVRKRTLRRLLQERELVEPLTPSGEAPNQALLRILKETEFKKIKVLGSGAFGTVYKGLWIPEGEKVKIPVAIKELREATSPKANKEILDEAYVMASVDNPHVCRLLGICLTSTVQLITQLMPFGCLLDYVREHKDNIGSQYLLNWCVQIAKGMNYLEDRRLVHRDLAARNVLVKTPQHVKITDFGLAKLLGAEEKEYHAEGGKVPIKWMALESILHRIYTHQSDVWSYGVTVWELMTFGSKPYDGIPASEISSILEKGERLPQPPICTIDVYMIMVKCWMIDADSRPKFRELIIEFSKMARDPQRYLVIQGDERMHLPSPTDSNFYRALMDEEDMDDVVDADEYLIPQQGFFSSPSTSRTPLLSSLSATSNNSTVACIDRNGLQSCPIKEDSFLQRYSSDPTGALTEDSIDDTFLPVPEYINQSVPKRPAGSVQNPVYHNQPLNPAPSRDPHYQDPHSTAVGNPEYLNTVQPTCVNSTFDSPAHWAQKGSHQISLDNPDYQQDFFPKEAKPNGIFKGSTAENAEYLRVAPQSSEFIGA
CSNK1A1, sequence (P48729 whole entry): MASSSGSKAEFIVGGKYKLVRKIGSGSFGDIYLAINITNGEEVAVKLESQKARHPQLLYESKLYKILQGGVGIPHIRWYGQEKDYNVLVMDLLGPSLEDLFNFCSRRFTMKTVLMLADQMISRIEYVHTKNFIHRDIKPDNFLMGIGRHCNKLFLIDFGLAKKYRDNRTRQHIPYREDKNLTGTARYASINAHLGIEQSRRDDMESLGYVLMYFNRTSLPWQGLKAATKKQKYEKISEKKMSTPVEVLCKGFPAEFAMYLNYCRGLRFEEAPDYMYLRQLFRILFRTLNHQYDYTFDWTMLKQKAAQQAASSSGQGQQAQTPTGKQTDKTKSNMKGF

| SMILES | IC50 (CSNK1A1) | IC50 [1, 2] | IC50 [1, 3] |
| --- | --- | --- | --- |
| O=C(Nc1cc(-c2[nH]c3cc[nH]c(=O)c3c2-c2ccccc2)ccn1)C(CC(F)F)c1ccc(F)cc1 (racemic) [Example 76, 4,4-difluoro-2-(4-fluorophenyl)-N-[4-(4-oxo-3-phenyl-4,5-dihydro-1H-pyrrolo[3,2-c]pyridin-2-yl)pyridin-2-yl]butanamide] | 0.002 µM | > 20 µM | – |
| Cc1cn(C)c(=O)c2c(-c3ccc(F)cc3)c(-c3ccnc(NC(=O)C(C)c4ccc(F)cc4)c3)[nH]c12 (single isomer, unassigned; (-)) [Example 031, (-)-2-(4-fluorophenyl)-N-{4-[3-(4-fluorophenyl)-5,7-dimethyl-4-oxo-4,5-dihydro-1H-pyrrolo[3,2-c]pyridin-2-yl]pyridin-2-yl}propanamide] | – | > 20 µM | – |
| Cc1cn(C)c(=O)c2c(-c3ccc(F)cc3)c(-c3ccnc(NC(=O)C(CC(F)F)c4ccc(F)cc4)c3)[nH]c12 (single isomer, unassigned; (-)) [Example 035, (-)-4,4-difluoro-2-(4-fluorophenyl)-N-{4-[3-(4-fluorophenyl)-5,7-dimethyl-4-oxo-4,5-dihydro-1H-pyrrolo[3,2-c]pyridin-2-yl]pyridin-2-yl}butanamide] | – | > 20 µM | – |
| CN1C(=O)c2c([nH]c(-c3ccnc(NC(=O)C(CC(F)F)c4ccc(F)cc4)c3)c2-c2ccccc2)CC12CCC2 (single isomer, unassigned; (-)) [Example 050, (-)-4,4-difluoro-2-(4-fluorophenyl)-N-[4-(5′-methyl-4′-oxo-3′-phenyl-1′,4′,5′,7′-tetrahydrospiro-[cyclobutane-1,6′-pyrrolo[3,2-c]pyridin]-2′-yl)pyridin-2-yl]butanamide] | – | 11.9 µM | – |
| CC(C(=O)Nc1cc(-c2[nH]c3c(c2-c2ccccc2)C(=O)N(C)C2(CCC2)C3)ccn1)c1ccc(F)cc1 (single isomer, unassigned; (-)) [Example 053, (-)-2-(4-fluorophenyl)-N-[4-(5′-methyl-4′-oxo-3′-phenyl-1′,4′,5′,7′-tetrahydrospiro[cyclobutane-1,6′-pyrrolo[3,2-c]pyridin]-2′-yl)pyridin-2-yl]propanamide] | – | > 20 µM | – |
| CN1CCc2[nH]c(-c3ccnc(NC(=O)Cc4ccc(F)cc4)c3)c(-c3cccnc3)c2C1=O [Example 012, 2-(4-fluorophenyl)-N-{4-[5-methyl-4-oxo-3-(pyridin-3-yl)-4,5,6,7-tetrahydro-1H-pyrrolo[3,2-c]pyridin-2-yl]pyridin-2-yl}acetamide] | – | – | > 20 µM |
| CC(C(=O)Nc1cc(-c2[nH]c3c(c2-c2ccccc2)C(=O)N(C)CC3CC(F)(F)F)ccn1)c1ccc(F)cc1 (centres unmarked) [Example 013] | – | – | > 20 µM |
| CN1CC(CC(F)(F)F)c2[nH]c(-c3ccnc(NC(=O)C(CC(F)F)c4ccc(F)cc4)c3)c(-c3ccccc3)c2C1=O (centres unmarked) [Example 017] | – | – | > 20 µM |
| CC(C(=O)Nc1cc(-c2[nH]c3c(c2-c2ccc(F)cc2)C(=O)N(C)CC3CC(F)(F)F)ccn1)c1ccc(F)cc1 (centres unmarked) [Example 021] | – | – | > 20 µM |
| CN1CC(CC(F)(F)F)c2[nH]c(-c3ccnc(NC(=O)C(CC(F)F)c4ccc(F)cc4)c3)c(-c3ccc(F)cc3)c2C1=O (centres unmarked) [Example 025] | – | – | > 20 µM |
| CC1CN(C)C(=O)c2c1[nH]c(-c1ccnc(NC(=O)C(C)c3ccc(F)cc3)c1)c2-c1ccc(F)cc1 (centres unmarked) [Example 029] | – | – | > 20 µM |
| CC1CN(C)C(=O)c2c1[nH]c(-c1ccnc(NC(=O)C(C)c3ccc(F)cc3)c1)c2-c1ccccc1 (centres unmarked) [Example 037] | – | – | > 20 µM |
| CC1CN(C)C(=O)c2c1[nH]c(-c1ccnc(NC(=O)C(CC(F)F)c3ccc(F)cc3)c1)c2-c1ccccc1 (centres unmarked) [Example 039] | – | – | > 20 µM |
| CC1c2[nH]c(-c3ccnc(NC(=O)C(CC(F)F)c4ccc(F)cc4)c3)c(-c3ccccc3)c2C(=O)N(C)C1C (centres unmarked) [Example 041] | – | – | > 20 µM |
| CC1(C)CNC(=O)c2c1[nH]c(-c1ccnc(NC(=O)Cc3ccc(F)cc3)c1)c2-c1ccccc1 [Example 042, N-[4-(7,7-dimethyl-4-oxo-3-phenyl-4,5,6,7-tetrahydro-1H-pyrrolo[3,2-c]pyridin-2-yl)pyridin-2-yl]-2-(4-fluorophenyl)acetamide] | – | – | 5.6 µM |
| Cn1cc(CC2CC2)c2[nH]c(-c3ccnc(NC(=O)Cc4ccc(F)cc4)c3)c(-c3ccccc3)c2c1=O [Example 056, N-{4-[7-(cyclopropylmethyl)-5-methyl-4-oxo-3-phenyl-4,5-dihydro-1H-pyrrolo[3,2-c]pyridin-2-yl]pyridin-2-yl}-2-(4-fluorophenyl)acetamide] | – | – | > 20 µM |
| CC(C(=O)Nc1cc(-c2[nH]c3c(c2-c2ccccc2)C(=O)N(C)CC3CC2CC2)ccn1)c1ccc(F)cc1 (centres unmarked) [Example 057] | – | – | > 20 µM |
| CN1CC(CC2CC2)c2[nH]c(-c3ccnc(NC(=O)C(CC(F)F)c4ccc(F)cc4)c3)c(-c3ccccc3)c2C1=O (centres unmarked) [Example 059] | – | – | > 20 µM |
| CC(C(=O)Nc1cc(-c2[nH]c3c(c2-c2ccc(F)cc2)C(=O)N(C)CC3CC2CC2)ccn1)c1ccc(F)cc1 (centres unmarked) [Example 062] | – | – | > 5.71 µM |
